Where two headings read alike, the source gives them in different places.
Legend:
DARPP-32 = conditions: chronic administration in rats; cited from earlier work
Thr34-DARPP-32 = assay: In vivo phosphorylation of DARPP-32 at Thr34 in mouse striatum (immunoblot, phosphorylation state-specific antibodies); set-up: species or system mice; conditions: for Thr34-DARPP-32 phosphorylation level (mean): eticlopride 0.5, haloperidol 0.2, clozapine 5 mg/kg i.p., time 0 control = 100
Method: (§1) Male C57/BL6 mice (groups of six) were administered intraperitoneal injections of one of three anti-psychotic compounds, haloperidol (a typical anti-psychotic), clozapine (an atypical anti-psychotic), or eticlopride (a selective dopamine D2 receptor antagonist). All animals were sacrificed by decapitation at 15, 30, or 60 minutes post-injection. After decapitation, the heads were immediately immersed in liquid nitrogen for 6 seconds to inactivate all protein activity. The brains were then dissected on an ice-cold surface and the striata removed and sonicated in 750 μl of 1% SDS, and then boiled for 10 minutes. Levels of phosphorylated DARPP-32, CREB, and ERK1 and ERK2 were then determined.
(§2) In order to determine levels of phosphoproteins in brain tissue, aliquots of the brain homogenate were loaded onto 10% polyacrylamide gels and the proteins separated by SDS/PAGE analysis, and then transferred to poly(vinylidene difluoride) membranes as described by Towbin and colleagues (Towbin, H. et al. 1979. Proc. Natl. Acad. Sci. USA 76:4350-4354). The effect of the drugs on the phosphorylation of DARPP-32 at two sites (Thr34 and Thr75), ERK1 at two sites (Thr202 and Tyr204), ERK2 at two sites (Thr185 and Tyr187), and CREB at one site (Ser133) was assessed using phosphorylation state-specific antibodies according to standard methods. Anti-phospho-ERK1 and anti-phospho-ERK2 antibodies were obtained from Cell Signaling Technology (Beverly, Mass.). Anti-phospho-CREB antibody was obtained from Upstate Biotechnology (Lake Placid, N.Y.). Anti-phospho-DARPP32 antibodies were used that had been produced according to the methods disclosed in U.S. patent application Ser. No. 09/419,379, by Bibb et al., entitled “Methods of Identifying Agents That Regulate Phosphorylation/Dephosphorylation in Dopamine Signaling,” filed Oct. 15, 1999, and Ser. No. 09/687,959, by Bibb et al., entitled “Methods of Identifying Agents That Regulate Phosphorylation/Dephosphorylation in Dopamine Signaling,” filed Oct. 13, 2000, (each of which is incorporated herein by reference in its entirety). These methods were used to produce phosphorylation state-specific antibodies having specificity for Thr34-phosphorylated and Thr75-phosphorylated DARPP-32.

Thr185- and Tyr187- ERK2 = assay: In vivo phosphorylation of ERK2 in mouse striatum (immunoblot, phosphorylation state-specific antibodies); set-up: species or system mice; conditions: for Thr185- and Tyr187- ERK2 phosphorylation level (mean): eticlopride 0.5, haloperidol 0.2, clozapine 5 mg/kg i.p., time 0 control = 100; for levels of phospho-ERK2 (in words): haloperidol 0.2 mg/kg, eticlopride 0.5 mg/kg
Method: as §1, §2

Ser133-CREB = assay: In vivo phosphorylation of CREB in mouse striatum (immunoblot, phosphorylation state-specific antibodies); set-up: species or system mice; conditions: for Ser133-CREB phosphorylation level (mean): eticlopride 0.5, haloperidol 0.2, clozapine 5 mg/kg i.p., time 0 control = 100; for levels of phospho-CREB (in words): haloperidol 0.2 mg/kg, eticlopride 0.5 mg/kg
Method: as §1, §2

Thr202- and Tyr204- ERK1 = assay: In vivo phosphorylation of ERK1 in mouse striatum (immunoblot, phosphorylation state-specific antibodies); conditions: for Thr202- and Tyr204- ERK1 phosphorylation level (mean): eticlopride 0.5, haloperidol 0.2, clozapine 5 mg/kg i.p., time 0 control = 100; for levels of phospho-ERK1 (in words): haloperidol 0.2 mg/kg, eticlopride 0.5 mg/kg
Thr75-DARPP-32 = assay: In vivo phosphorylation of DARPP-32 at Thr75 in mouse striatum (immunoblot, phosphorylation state-specific antibodies); conditions: for Thr75-DARPP-32 phosphorylation level (mean): eticlopride 0.5, haloperidol 0.2, clozapine 5 mg/kg i.p., time 0 control = 100
c-fos = conditions: dorsal striatum; cited from earlier work
DOI-induced behaviors = conditions: rats; 30 min pretreatment i.p.; fixed dose of DOI 3.0 mg/kg; cited from earlier work

N[C@@H]1C[C@H]1c1ccccc1 (racemic) [tranylcypromine]
frontal cortex levels of DARPP-32 immunoreactivity (DARPP-32): significant increases

CN1CCN(C2=Nc3cc(Cl)ccc3Nc3ccccc32)CC1 [Clozapine, clozapine]
Thr34-DARPP-32 phosphorylation level (mean) (Thr34-DARPP-32; 15 min post-injection): 188
Thr34-DARPP-32 phosphorylation level (mean) (Thr34-DARPP-32; 30 min post-injection): 209
Thr34-DARPP-32 phosphorylation level (mean) (Thr34-DARPP-32; 60 min post-injection): 222
Thr185- and Tyr187- ERK2 phosphorylation level (mean) (Thr185- and Tyr187- ERK2; 15 min post-injection): 62
Thr185- and Tyr187- ERK2 phosphorylation level (mean) (Thr185- and Tyr187- ERK2; 30 min post-injection): 41
Thr185- and Tyr187- ERK2 phosphorylation level (mean) (Thr185- and Tyr187- ERK2; 60 min post-injection): 15
Ser133-CREB phosphorylation level (mean) (Ser133-CREB; 15 min post-injection): 51
Ser133-CREB phosphorylation level (mean) (Ser133-CREB; 30 min post-injection): 62
Ser133-CREB phosphorylation level (mean) (Ser133-CREB; 60 min post-injection): 57
Thr202- and Tyr204- ERK1 phosphorylation level (mean) (Thr202- and Tyr204- ERK1; 15 min post-injection): 90
Thr202- and Tyr204- ERK1 phosphorylation level (mean) (Thr202- and Tyr204- ERK1; 30 min post-injection): 75
Thr202- and Tyr204- ERK1 phosphorylation level (mean) (Thr202- and Tyr204- ERK1; 60 min post-injection): 33
Thr75-DARPP-32 phosphorylation level (mean) (Thr75-DARPP-32; 15 min post-injection): 179
Thr75-DARPP-32 phosphorylation level (mean) (Thr75-DARPP-32; 30 min post-injection): 216
Thr75-DARPP-32 phosphorylation level (mean) (Thr75-DARPP-32; 60 min post-injection): 203

CCc1cc(Cl)c(OC)c(C(=O)NC[C@@H]2CCCN2CC)c1O [Eticlopride, eticlopride]
Thr34-DARPP-32 phosphorylation level (mean) (Thr34-DARPP-32; 15 min post-injection): 192
Thr34-DARPP-32 phosphorylation level (mean) (Thr34-DARPP-32; 30 min post-injection): 226
Thr34-DARPP-32 phosphorylation level (mean) (Thr34-DARPP-32; 60 min post-injection): 190
time after administration at which phospho-ERK2 levels returned to control levels (Thr185- and Tyr187- ERK2): 30 min
Thr185- and Tyr187- ERK2 phosphorylation level (mean) (Thr185- and Tyr187- ERK2; 15 min post-injection): 132
Thr185- and Tyr187- ERK2 phosphorylation level (mean) (Thr185- and Tyr187- ERK2; 30 min post-injection): 97
Thr185- and Tyr187- ERK2 phosphorylation level (mean) (Thr185- and Tyr187- ERK2; 60 min post-injection): 96
levels of phospho-ERK2 (in words) (Thr185- and Tyr187- ERK2): significant increases
time after administration at which phospho-CREB levels returned to control levels (Ser133-CREB): 60 min
Ser133-CREB phosphorylation level (mean) (Ser133-CREB; 15 min post-injection): 167
Ser133-CREB phosphorylation level (mean) (Ser133-CREB; 30 min post-injection): 146
Ser133-CREB phosphorylation level (mean) (Ser133-CREB; 60 min post-injection): 123
levels of phospho-CREB (in words) (Ser133-CREB): significant increases
Thr202- and Tyr204- ERK1 phosphorylation level (mean) (Thr202- and Tyr204- ERK1; 15 min post-injection): 223
Thr202- and Tyr204- ERK1 phosphorylation level (mean) (Thr202- and Tyr204- ERK1; 30 min post-injection): 207
Thr202- and Tyr204- ERK1 phosphorylation level (mean) (Thr202- and Tyr204- ERK1; 60 min post-injection): 170
levels of phospho-ERK1 (in words) (Thr202- and Tyr204- ERK1): significant increases
Thr75-DARPP-32 phosphorylation level (mean) (Thr75-DARPP-32; 15 min post-injection): 80
Thr75-DARPP-32 phosphorylation level (mean) (Thr75-DARPP-32; 30 min post-injection): 70
Thr75-DARPP-32 phosphorylation level (mean) (Thr75-DARPP-32; 60 min post-injection): 80
DARPP-32 phosphorylation at Thr75 (in words) (Thr75-DARPP-32; at 30 minutes): decreased

O=C(CCCN1CCC(O)(c2ccc(Cl)cc2)CC1)c1ccc(F)cc1 [Haloperidol, haloperidol]
Thr34-DARPP-32 phosphorylation level (mean) (Thr34-DARPP-32; 15 min post-injection): 195
Thr34-DARPP-32 phosphorylation level (mean) (Thr34-DARPP-32; 30 min post-injection): 196
Thr34-DARPP-32 phosphorylation level (mean) (Thr34-DARPP-32; 60 min post-injection): 155
Thr34 phosphorylation (in words) (Thr34-DARPP-32; at 60 minutes): no statistical difference from controls
Thr34 phosphorylation (in words) (Thr34-DARPP-32; for up to 30 minutes): increased
time after administration at which phospho-ERK2 levels returned to control levels (Thr185- and Tyr187- ERK2): 30 min
Thr185- and Tyr187- ERK2 phosphorylation level (mean) (Thr185- and Tyr187- ERK2; 15 min post-injection): 151
Thr185- and Tyr187- ERK2 phosphorylation level (mean) (Thr185- and Tyr187- ERK2; 30 min post-injection): 114
Thr185- and Tyr187- ERK2 phosphorylation level (mean) (Thr185- and Tyr187- ERK2; 60 min post-injection): 107
levels of phospho-ERK2 (in words) (Thr185- and Tyr187- ERK2): significant increases
time after administration at which phospho-CREB levels returned to control levels (Ser133-CREB): 30 min
Ser133-CREB phosphorylation level (mean) (Ser133-CREB; 15 min post-injection): 148
Ser133-CREB phosphorylation level (mean) (Ser133-CREB; 30 min post-injection): 131
Ser133-CREB phosphorylation level (mean) (Ser133-CREB; 60 min post-injection): 114
levels of phospho-CREB (in words) (Ser133-CREB): significant increases
frontal cortex levels of DARPP-32 immunoreactivity (DARPP-32): without effects
inducing c-fos expression, as compared to clozapine (c-fos): much more effective
effect on the three behavioral effects of DOI (head-and-body shakes, forepaw tapping, skin-jerks) (DOI-induced behaviors): antagonize
Thr202- and Tyr204- ERK1 phosphorylation level (mean) (Thr202- and Tyr204- ERK1; 15 min post-injection): 231
Thr202- and Tyr204- ERK1 phosphorylation level (mean) (Thr202- and Tyr204- ERK1; 30 min post-injection): 187
Thr202- and Tyr204- ERK1 phosphorylation level (mean) (Thr202- and Tyr204- ERK1; 60 min post-injection): 169
levels of phospho-ERK1 (in words) (Thr202- and Tyr204- ERK1): significant increases
DARPP-32 phosphorylation at Thr75 (in words) (Thr75-DARPP-32): without effect
Thr75-DARPP-32 phosphorylation level (mean) (Thr75-DARPP-32; 15 min post-injection): 133
Thr75-DARPP-32 phosphorylation level (mean) (Thr75-DARPP-32; 30 min post-injection): 144
Thr75-DARPP-32 phosphorylation level (mean) (Thr75-DARPP-32; 60 min post-injection): 138

COc1cccc([C@H](O)C2CCN(CCc3ccc(F)cc3)CC2)c1OC [M100907]
effect on the three behavioral effects of DOI (head-and-body shakes, forepaw tapping, skin-jerks) (DOI-induced behaviors): antagonize

CCNC(=O)N1CCN(CCCC(c2ccc(F)cc2)c2ccc(F)cc2)CC1 [amperozide]
effect on the three behavioral effects of DOI (head-and-body shakes, forepaw tapping, skin-jerks) (DOI-induced behaviors): antagonize

COc1cc(C(C)=O)ccc1OCCCN1CCC(c2noc3cc(F)ccc23)CC1 [iloperidone]
effect on the three behavioral effects of DOI (head-and-body shakes, forepaw tapping, skin-jerks) (DOI-induced behaviors): antagonize

CN(C)CCCN1c2ccccc2CCc2ccccc21 [imipramine]
frontal cortex levels of DARPP-32 immunoreactivity (DARPP-32): significant increases

CN1CC[C@]23c4c5ccc(O)c4O[C@H]2[C@@H](O)C=C[C@H]3[C@H]1C5 [morphine]
frontal cortex levels of DARPP-32 immunoreactivity (DARPP-32): without effects

CCN1CCC[C@H]1CNC(=O)c1c(OC)ccc(Br)c1OC [remoxipride]
effect on the three behavioral effects of DOI (head-and-body shakes, forepaw tapping, skin-jerks) (DOI-induced behaviors): antagonize

Cc1nc2n(c(=O)c1CCN1CCC(c3noc4cc(F)ccc34)CC1)CCCC2 [risperidone]
effect on the three behavioral effects of DOI (head-and-body shakes, forepaw tapping, skin-jerks) (DOI-induced behaviors): antagonize

Cc1nc2sccn2c(=O)c1CCN1CCC(=C(c2ccc(F)cc2)c2ccc(F)cc2)CC1 [ritanserin]
effect on the three behavioral effects of DOI (head-and-body shakes, forepaw tapping, skin-jerks) (DOI-induced behaviors): antagonize

N alpha MeArg-Lys-Pro-Trp-Tle-Leu [NT1]
effect on the three behavioral effects of DOI (head-and-body shakes, forepaw tapping, skin-jerks) (DOI-induced behaviors): antagonize

Source: patent US7427485B2, “Method for classification of anti-psychotic drugs” (The Rockefeller University, priority 2001, dated 2008)
